In general, inhibition refers to the change of the read-out against control, counted positive when it falls. By IC50 is commonly meant the concentration at which inhibition is half-maximal.

Structures are written as SMILES.

Chain of BCL-2 recombinant protein (P10415 whole entry): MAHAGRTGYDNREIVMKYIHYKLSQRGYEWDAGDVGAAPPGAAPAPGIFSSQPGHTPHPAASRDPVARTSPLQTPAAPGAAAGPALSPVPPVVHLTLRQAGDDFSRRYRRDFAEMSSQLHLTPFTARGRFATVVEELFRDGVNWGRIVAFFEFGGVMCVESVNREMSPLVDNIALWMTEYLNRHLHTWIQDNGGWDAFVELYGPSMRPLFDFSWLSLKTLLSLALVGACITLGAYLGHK

The target of the first test is BCL-2 recombinant protein (Homo sapiens, UniProt P10415). The experiment in a line: Cell free Bcl-2:Bak affinity assay (Bcl-2 Bak), HTRF competition of FAM-Bak peptide. The following applies: 1 μM compound, 4 nM BCL-2 recombinant protein, 100 nM FAM-Bak, read-out: potency (% inhibition at 1 μM). The test is classed as binding. In a few lines:
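Compounds in 10-point 3-fold dilution preincubated 10 min at RT with 4 nM GST-BCL-2 (20 mM K phosphate pH 7.5, 50 mM NaCl, 1 mM EDTA, 0.005% Triton X-100), then 100 nM FAM-Bak 10 min, anti-GST-Tb added, 60 min RT dark. HTRF read; % inhibition vs DMSO and positive control, IC50 from curve fit.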
(In general: TR-FRET usually uses a lanthanide donor and a delayed reading to cut background.)
Turning to `COCc1cccc(C(=O)NS(=O)(=O)c2ccc(N3CCN(CC4=C(c5ccc(Cl)cc5)CC(C)(C)CC4)CC3)cc2)c1` [Example 18, N-([4-[4-[[2-(4-chlorophenyl)-4,4-dimethylcyclohexen-1-yl]methyl]piperazin-1-yl]phenyl]sulfonyl)-3-(methoxymethyl)benzamide], the inhibition at 1 µM was 50 to 90%.

Consider `Cc1cccc(COc2cccc(C(=O)NS(=O)(=O)c3ccc(N4CCN(CC5=C(c6ccc(Cl)cc6)CC(C)(C)CC5)CC4)cc3)c2)c1` [Example 34, N-([4-[4-[[2-(4-chlorophenyl)-4,4-dimethylcyclohexen-1-yl]methyl]piperazin-1-yl]phenyl]sulfonyl)-3-((3-methylbenzyl)oxy)benzamide], for which the inhibition at 1 µM fell in the range of 50 to 90%.

Regarding `Cn1ncc2cc(-c3nc(C(=O)NS(=O)(=O)c4ccc(N5CCN(CC6=C(c7ccc(Cl)cc7)CC(C)(C)CC6)CC5)cc4)ccc3F)ccc21` [Example 50, N-[4-[4-[[2-(4-chlorophenyl)-4,4-dimethylcyclohexen-1-yl]methyl]piperazin-1-yl]phenyl]sulfonyl-5-fluoro-6-(1-methyl-1H-indazol-5-yl)pyridine-2-carboxamide], the inhibition at 1 µM lay within 50 to 90%.

Regarding `CC1(C)CCC(CN2CCN(c3ccc(S(=O)(=O)NC(=O)c4ccc([N+](=O)[O-])c(OCc5ccccc5)c4)cc3)CC2)=C(c2ccc(Cl)cc2)C1` [Example 40, 3-(benzyloxy)-N-([4-[4-[[2-(4-chlorophenyl)-4,4-dimethylcyclohexen-1-yl]methyl]piperazin-1-yl]phenyl]sulfonyl)-4-nitrobenzamide], the inhibition at 1 µM lay in the range of 50 to 90%.

For the compound `Cn1cc(-c2nc(C(=O)NS(=O)(=O)c3ccc(N4CCN(CC5=C(c6ccc(Cl)cc6)CC(C)(C)CC5)CC4)cc3)ccc2F)cn1` [Example 45, N-[4-[4-[[2-(4-chlorophenyl)-4,4-dimethylcyclohexen-1-yl]methyl]piperazin-1-yl]phenyl]sulfonyl-5-fluoro-6-(1-methyl-1H-pyrazol-4-yl)pyridine-2-carboxamide], the inhibition at 1 µM lay in the range of 50 to 90%.

In the case of `CC1(C)CCC(CN2CCN(c3ccc(S(=O)(=O)NC(=O)c4ccc(Cl)c(Cl)n4)cc3)CC2)=C(c2ccc(Cl)cc2)C1` [Example 20, 5,6-dichloro-N-([4-[4-[[2-(4-chlorophenyl)-4,4-dimethylcyclohexen-1-yl]methyl]piperazin-1-yl]phenyl]sulfonyl)pyridine-2-carboxamide], the inhibition at 1 µM fell in the range of 50 to 90%.

Take `Cc1c(C(=O)NS(=O)(=O)c2ccc(N3CCN(CC4=C(c5ccc(Cl)cc5)CC(C)(C)CC4)CC3)cc2)nnn1Cc1ccccc1` [Example 4, 1-benzyl-N-[4-[4-[[2-(4-chlorophenyl)-4,4-dimethylcyclohexen-1-yl]methyl]piperazin-1-yl]phenyl]sulfonyl-5-methyl-1H-1,2,3-triazole-4-carboxamide]: the inhibition at 1 µM lay within 50 to 90%.

For the compound `Cc1onc(C(=O)NS(=O)(=O)c2ccc(N3CCN(CC4=C(c5ccc(Cl)cc5)CC(C)(C)CC4)CC3)cc2)c1C` [Example 17, N-([4-[4-[[2-(4-chlorophenyl)-4,4-dimethylcyclohexen-1-yl]methyl]piperazin-1-yl]phenyl]sulfonyl)-4,5-dimethylisoxazole-3-carboxamide], the inhibition at 1 µM fell in the range of 50 to 90%.

As for `Cc1ccc(CC(=O)NS(=O)(=O)c2ccc(N3CCN(CC4=C(c5ccc(Cl)cc5)CC(C)(C)CC4)CC3)cc2)cn1` [Example 26, N-([4-[4-[[2-(4-chlorophenyl)-4,4-dimethylcyclohexen-1-yl]methyl]piperazin-1-yl]phenyl]sulfonyl)-2-(6-methylpyridin-3-yl)acetamide], the inhibition at 1 µM is under 50%.

Staying with this test, now noted: 10-concentration IC50 mode, 4 nM BCL-2 recombinant protein, 100 nM FAM-Bak, read-out: potency (IC50).
In the case of `Cc1nc(C(=O)NS(=O)(=O)c2ccc(N3CCN(CC4=C(c5ccc(Cl)cc5)CC(C)(C)CC4)CC3)cc2Oc2cnc3[nH]ccc3c2)ccc1[N+](=O)[O-]` [Example 70, N-[4-[4-[[2-(4-chlorophenyl)-4,4-dimethylcyclohexen-1-yl]methyl]piperazin-1-yl]-2-(1H-pyrrolo[2,3-b]pyridin-5-yloxy)phenyl]sulfonyl-6-methyl-5-nitropyridine-2-carboxamide], the IC50 was 10 to 100 nM.

As for `CCOc1c([N+](=O)[O-])cc(C(=O)NS(=O)(=O)c2ccc(N3CCN(CC4=C(c5ccc(Cl)cc5)CC(C)(C)CC4)CC3)cc2Oc2cnc3[nH]ccc3c2)c(Cl)c1C` [Example 102, 2-chloro-N-[4-[4-[[2-(4-chlorophenyl)-4,4-dimethylcyclohexen-1-yl]methyl]piperazin-1-yl]-2-(1H-pyrrolo[2,3-b]pyridin-5-yloxy)phenyl]sulfonyl-4-ethoxy-3-methyl-5-nitrobenzamide], the IC50 was 100 to 1000 nM.

Turning to `CC1(C)CCC(CN2CCN(c3ccc(S(=O)(=O)NC(=O)c4ccc(CNc5ccc(Cl)cc5)c([N+](=O)[O-])c4)c(Oc4cnc5[nH]ccc5c4)c3)CC2)=C(c2ccc(Cl)cc2)C1` [Example 91, 4-[(4-chloroanilino)methyl]-N-[4-[4-[[2-(4-chlorophenyl)-4,4-dimethylcyclohexen-1-yl]methyl]piperazin-1-yl]-2-(1H-pyrrolo[2,3-b]pyridin-5-yloxy)phenyl]sulfonyl-3-nitrobenzamide], the IC50 lay in the range of 10 to 100 nM.

Regarding `Cc1nn(C)c(C(=O)NS(=O)(=O)c2ccc(N3CCN(CC4=C(c5ccc(Cl)cc5)CC(C)(C)CC4)CC3)cc2Oc2cnc3[nH]ccc3c2)c1C` [Example 78, N-[4-[4-[[2-(4-chlorophenyl)-4,4-dimethylcyclohexen-1-yl]methyl]piperazin-1-yl]-2-(1H-pyrrolo[2,3-b]pyridin-5-yloxy)phenyl]sulfonyl-2,4,5-trimethylpyrazole-3-carboxamide], the 50% inhibitory concentration (IC50) was 100 to 1000 nM.

Consider `CC1(C)CCC(CN2CCN(c3ccc(S(=O)(=O)NC(=O)c4ccc([N+](=O)[O-])c(Cl)n4)c(Oc4cnc5[nH]ccc5c4)c3)CC2)=C(c2ccc(Cl)cc2)C1` [Example 72, 6-Chloro-N-[4-[4-[[2-(4-chlorophenyl)-4,4-dimethylcyclohexen-1-yl]methyl]piperazin-1-yl]-2-(1H-pyrrolo[2,3-b]pyridin-5-yloxy)phenyl]sulfonyl-5-nitropyridine-2-carboxamide], for which the IC50 is 10 to 100 nM.

As to `CC1(C)CCC(CN2CCN(c3ccc(S(=O)(=O)NC(=O)c4ccc(F)c(Br)n4)cc3)CC2)=C(c2ccc(Cl)cc2)C1` [Example 33, 6-bromo-N-([4-[4-[[2-(4-chlorophenyl)-4,4-dimethylcyclohexen-1-yl]methyl]piperazin-1-yl]phenyl]sulfonyl)-5-fluoropyridine-2-carboxamide], the concentration for half-maximal inhibition (IC50) was in the range of 10 to 100 nM.

On to `CC1(C)CCC(CN2CCN(c3ccc(S(=O)(=O)NC(=O)c4cc(COc5ccc(Cl)cc5)cc([N+](=O)[O-])c4)c(Oc4cnc5[nH]ccc5c4)c3)CC2)=C(c2ccc(Cl)cc2)C1` [Example 86, 3-[(4-Chlorophenoxy)methyl]-N-[4-[4-[[2-(4-chlorophenyl)-4,4-dimethylcyclohexen-1-yl]methyl]piperazin-1-yl]-2-(1H-pyrrolo[2,3-b]pyridin-5-yloxy)phenyl]sulfonyl-5-nitrobenzamide], for which the concentration for half-maximal inhibition (IC50) is 10 to 100 nM.

Regarding `CC1(C)CCC(CN2CCN(c3ccc(S(=O)(=O)NC(=O)c4cccc([N+](=O)[O-])c4)cc3)CC2)=C(c2ccc(Cl)cc2)C1` [Example 32, N-([4-[4-[[2-(4-chlorophenyl)-4,4-dimethylcyclohexen-1-yl]methyl]piperazin-1-yl]phenyl]sulfonyl)-3-nitrobenzamide], the IC50 is over 1000 nM.

Consider `Cc1nc(C(=O)NS(=O)(=O)c2ccc(N3CCN(CC4=C(c5ccc(Cl)cc5)CC(C)(C)CC4)CC3)cc2Oc2cnc3[nH]ccc3c2)ccc1F` [Example 69, N-[4-[4-[[2-(4-chlorophenyl)-4,4-dimethylcyclohexen-1-yl]methyl]piperazin-1-yl]-2-(1H-pyrrolo[2,3-b]pyridin-5-yloxy)phenyl]sulfonyl-5-fluoro-6-methylpyridine-2-carboxamide], for which the IC50 was in the range of 10 to 100 nM.

Take `COCc1cc(C(=O)NS(=O)(=O)c2ccc(N3CCN(CC4=C(c5ccc(Cl)cc5)CC(C)(C)CC4)CC3)cc2Oc2cnc3[nH]ccc3c2)cc([N+](=O)[O-])c1` [Example 85, N-[4-[4-[[2-(4-chlorophenyl)-4,4-dimethylcyclohexen-1-yl]methyl]piperazin-1-yl]-2-(1H-pyrrolo[2,3-b]pyridin-5-yloxy)phenyl]sulfonyl-3-(methoxymethyl)-5-nitrobenzamide]: the IC50 was 10 to 100 nM.

Turning to `Cc1cc([N+](=O)[O-])cc(C(=O)NS(=O)(=O)c2ccc(C3=CCN(CC4=C(c5ccc(Cl)cc5)CC(C)(C)CC4)CC3)cc2F)n1` [Example 65, N-[4-[1-[[2-(4-Chlorophenyl)-4,4-dimethylcyclohexen-1-yl]methyl]-3,6-dihydro-2H-pyridin-4-yl]-2-fluorophenyl]sulfonyl-6-methyl-4-nitropyridine-2-carboxamide], the IC50 is under 10 nM.

For `CC1(C)CCC(CN2CCN(c3ccc(S(=O)(=O)NC(=O)c4ccc(Cl)c(Cl)n4)c(Oc4cnc5[nH]ccc5c4)c3)CC2)=C(c2ccc(Cl)cc2)C1` [Example 68, 5,6-Dichloro-N-[4-[4-[[2-(4-chlorophenyl)-4,4-dimethylcyclohexen-1-yl]methyl]piperazin-1-yl]-2-(1H-pyrrolo[2,3-b]pyridin-5-yloxy)phenyl]sulfonylpyridine-2-carboxamide], the IC50 lay in the range of 10 to 100 nM.

On to `CC1(C)CCC(CN2CCN(c3ccc(S(=O)(=O)NC(=O)c4ccc(COc5ccc(Cl)cc5)c(F)c4)c(Oc4cnc5[nH]ccc5c4)c3)CC2)=C(c2ccc(Cl)cc2)C1` [Example 83, 4-[(4-Chlorophenoxy)methyl]-N-[4-[4-[[2-(4-chlorophenyl)-4,4-dimethylcyclohexen-1-yl]methyl]piperazin-1-yl]-2-(1H-pyrrolo[2,3-b]pyridin-5-yloxy)phenyl]sulfonyl-3-fluorobenzamide], for which the IC50 fell in the range of 10 to 100 nM.

For the origin of these results see patent US11622970B2, “BCL-2 inhibitors and their use as pharmaceuticals” (PRELUDE THERAPEUTICS INCORPORATED, priority 2020, dated 2023).
